Reference: patent US20230217975A1, “PERFUME COMPOSITION” (AJINOMOTO CO., INC., priority 2020, published 2023)

Columns and labels:
panel of 4 experts [1] = assay: Sensory evaluation of strength of mouth-coating feel in mayonnaise (Examples 1, 5, 6); format: in vivo; conditions: for strength of mouth-coating feel, single component compound (II) / strength of mouth-coating feel, two components compound (II) and cyclotene / strength of mouth-coating feel, two components compound (II) and β-caryophyllene oxide / strength of mouth-coating feel, three components compound (II), β-caryophyllene oxide, and cyclotene: compound (II) 10 weight ppb; for strength of mouth-coating feel, two components compound (II) and cyclotene / strength of mouth-coating feel, three components compound (II), β-caryophyllene oxide, and cyclotene: cyclotene 500 weight ppb; for strength of mouth-coating feel, two components compound (II) and β-caryophyllene oxide / strength of mouth-coating feel, three components compound (II), β-caryophyllene oxide, and cyclotene: β-caryophyllene oxide 500 weight ppb; for strength of mouth-coating feel, no use of compound (II), single component: 500 weight ppb as printed in b569; as to strength of mouth-coating feel, three components compound (II), β-caryophyllene oxide, and cyclotene: tested at 0.01 µg/mL; as to strength of mouth-coating feel, two components compound (II) and cyclotene: tested at 0.01 µg/mL; as to strength of mouth-coating feel, two components compound (II) and β-caryophyllene oxide: tested at 0.01 µg/mL
panel of 4 experts [2] = assay: as above; format: in vivo; conditions: for strength of mouth-coating feel, single component compound (I) / strength of mouth-coating feel, two components compound (I) and furfural / strength of mouth-coating feel, two components compound (I) and β-caryophyllene oxide / strength of mouth-coating feel, three components compound (I), β-caryophyllene oxide and furfural: compound (I) 10 weight ppb; for strength of mouth-coating feel, two components compound (I) and furfural / strength of mouth-coating feel, three components compound (I), β-caryophyllene oxide and furfural: furfural 500 weight ppb; for strength of mouth-coating feel, two components compound (I) and β-caryophyllene oxide / strength of mouth-coating feel, three components compound (I), β-caryophyllene oxide and furfural: β-caryophyllene oxide 500 weight ppb; for strength of mouth-coating feel, no use of compound (I), single component: 500 weight ppb
Description: As a positive control, general commercially available mayonnaise (manufactured by Ajinomoto Co., Inc., trade name “Pure Select (registered trade mark) mayonnaise”, oil and fat content: 73%) was used. As a negative control (NC), commercially available mayonnaise (manufactured by Ajinomoto Co., Inc., trade name “Pure Select (registered trade mark) KOKUUMA (registered trade mark) 65% Calorie Cut”, oil and fat content: 23%) with a smaller oil and fat content as compared with positive control mayonnaise was used.
Experimental samples were produced by adding at least one compound selected from cyclotene, β-caryophyllene oxide, and furfural to the aforementioned commercially available mayonnaise (manufactured by Ajinomoto Co., Inc., trade name “Pure Select (registered trade mark) KOKUUMA (registered trade mark) 65% Calorie Cut”, oil and fat content: 23%) used as the negative control, such that the concentration of each compound in the food (mayonnaise) was a concentration shown in the following Tables 1 to 3 (in the following, each experimental sample is also to be referred to as “sample of experimental plot 1-1” to “sample of experimental plot 1-39”).
Cyclotene, octanoic acid, and isovaleric acid were added to the aforementioned commercially available mayonnaise (manufactured by Ajinomoto Co., Inc., trade name “Pure Select (registered trade mark) KOKUUMA (registered trade mark) 65% Calorie Cut”, oil and fat content: 23%) used as the negative control, such that the concentration of cyclotene in the food (mayonnaise) was 100 weight ppb, the concentration of octanoic acid was 200 weight ppb, and the concentration of isovaleric acid was 100 weight ppb to produce the sample of control plot 1.
A sensory evaluation was performed on the strength of mouth-coating feel of experimental samples, and the presence or absence of off-flavor.
For the evaluation of a mouth-coating feel, a panel of 4 experts ate each mayonnaise of positive control, negative control and experimental sample (samples of experimental plots 1-1 to 1-39 and control plot 1), and graded each experimental sample in 0.1 point increments (non-blind) in the range of 0.0 to 5.0 points, with the positive control being 5.0 points and the negative control being 0.0 point, by averaging the obtained scores of the panel of 4 experts. When the score was 1.0 or more, it was determined that there was an effect of enhancing the mouth-coating feel. The panel of 4 experts was trained in advance so that they have common understanding as to the degree of change in the mouth-coating feel that is required to change the score by 0.1 point.
Experimental samples were produced by adding at least one compound selected from compound (I) shown in the following Table 8 (any of cyclotene, γ-butyrolactone, 2-methyltetrahydrofuran-3-one, α-angelicalactone, maltol, 3-methyl-1,2-cyclohexanedione, γ-dodecanolactone, 5-dodecanolide, 4,5-dimethyl-3-hydroxy-2,5-dihydrofuran-2-one, and D-camphor), β-caryophyllene oxide, and furfural to the aforementioned commercially available mayonnaise (manufactured by Ajinomoto Co., Inc., trade name “Pure Select (registered trade mark) KOKUUMA (registered trade mark) 65% Calorie Cut”, oil and fat content: 23%) used as the negative control. Compound (I) was added such that the concentration of compound (I) in the food (mayonnaise) was 10 weight ppb, β-caryophyllene oxide was added such that the concentration of β-caryophyllene oxide in the food (mayonnaise) was 500 weight ppb, and furfural was added such that the concentration of furfural in the food (mayonnaise) was 500 weight ppb.
A sensory evaluation was performed on the strength of mouth-coating feel of experimental samples in the same manner as in Example 1.

| SMILES | strength of mouth-coating feel, single component compound (II) (panel of 4 experts [1]) | strength of mouth-coating feel, two components compound (II) and cyclotene (panel of 4 experts [1]) | strength of mouth-coating feel, two components compound (II) and β-caryophyllene oxide (panel of 4 experts [1]) | strength of mouth-coating feel, three components compound (II), β-caryophyllene oxide, and cyclotene (panel of 4 experts [1]) | strength of mouth-coating feel, single component compound (I) (panel of 4 experts [2]) | strength of mouth-coating feel, two components compound (I) and furfural (panel of 4 experts [2]) | strength of mouth-coating feel, two components compound (I) and β-caryophyllene oxide (panel of 4 experts [2]) | strength of mouth-coating feel, three components compound (I), β-caryophyllene oxide and furfural (panel of 4 experts [2]) | strength of mouth-coating feel, no use of compound (II), single component (panel of 4 experts [1]) | strength of mouth-coating feel, no use of compound (I), single component (panel of 4 experts [2]) |
| --- | --- | --- | --- | --- | --- | --- | --- | --- | --- | --- |
| c1coc(Cn2cccc2)c1 [1-furfurylpyrrole] | 0.2 | 2.4 | 2.2 | 4.1 |  |  |  |  |  |  |
| CC(=O)c1ccc(C)o1 [2-acetyl-5-methylfuran] | 0.2 | 2.2 | 2.2 | 4.4 |  |  |  |  |  |  |
| CC(=O)c1ccco1 [2-acetylfuran] | 0.2 | 2.4 | 2.0 | 4.3 |  |  |  |  |  |  |
| CC1OCCC1=O (stereo not shown) [2-methyltetrahydrofuran-3-one] |  |  |  |  | 0.5 | 2.4 | 3.2 | 4.2 |  |  |
| CC(=O)c1cc(C)oc1C [3-acetyl-2,5-dimethylfuran] | 0.2 | 2.5 | 2.0 | 4.2 |  |  |  |  |  |  |
| CC1CCCC(=O)C1=O (stereo not shown) [3-methyl-1,2-cyclohexanedione] |  |  |  |  | 0.5 | 2.3 | 3.0 | 4.4 |  |  |
| CC1=C(O)C(=O)OC1C (stereo not shown) [4,5-dimethyl-3-hydroxy-2,5-dihydrofuran-2-one] |  |  |  |  | 0.3 | 2.3 | 2.9 | 4.2 |  |  |
| O=Cc1ccc(CO)o1 [5-(hydroxymethyl)furfural] | 0.2 | 2.5 | 2.2 | 4.3 |  |  |  |  |  |  |
| CCCCCCCC1CCCC(=O)O1 (stereo not shown) [5-dodecanolide] |  |  |  |  | 0.5 | 2.4 | 3.2 | 4.2 |  |  |
| Cc1ccc(C=O)o1 [5-methylfurfural] | 0.2 | 2.4 | 2.1 | 4.2 |  |  |  |  |  |  |
| CC1(C)[C@@H]2CC[C@@]1(C)C(=O)C2 [D-camphor] |  |  |  |  | 0.4 | 2.6 | 3.1 | 4.2 |  |  |
| CC1=C(O)C(=O)CC1 [cyclotene] |  |  |  |  | 0.5 | 2.5 | 3.2 | 4.7 | 0.5 |  |
| O=Cc1ccco1 [furfural] | 0.3 | 2.2 | 2.2 | 4.7 |  |  |  |  |  | 0.3 |
| OCc1ccco1 [furfuryl alcohol] | 0.1 | 2.2 | 2.0 | 4.1 |  |  |  |  |  |  |
| CCC(=O)OCc1ccco1 [furfuryl propionate] | 0.2 | 2.4 | 2.2 | 4.3 |  |  |  |  |  |  |
| Cc1occc(=O)c1O [maltol] |  |  |  |  | 0.4 | 2.3 | 3.0 | 4.2 |  |  |
| CC1=CCC(=O)O1 [α-angelicalactone] |  |  |  |  | 0.5 | 2.3 | 2.9 | 4.2 |  |  |
| C=C1CC[C@H]2O[C@]2(C)CC[C@@H]2[C@@H]1CC2(C)C [β-caryophyllene oxide] |  |  |  |  |  |  |  |  | 1.5 | 1.5 |
| O=C1CCCO1 [γ-butyrolactone] |  |  |  |  | 0.5 | 2.2 | 3.2 | 4.2 |  |  |
